# Laboratory results: patent US20260308158A1, “TARGETING RNAS ASSOCIATED WITH TAUOPATHIES WITH SMALL MOLECULES” (University of Florida Research Foundation, Incorporated, priority 2023, published 2026)
# How the values were obtained:
# [1] = Plasma protein binding by equilibrium dialysis; format: in vitro ADME; conditions: 37° C., 6 h (2 at 5 μM), read-out: free fraction in plasma
# Description: Plasma and brain binding. Plasma protein binding was determined by equilibrium dialysis using a Thermo Scientific™ RED Device per the manufacturer's protocol. Each sample was prepared by addition of 2 into 100 μL plasma with final concentration of 5 μM (0.1% (v/v) DMSO). 1×PBS was used as dialysis buffer and was added into the buffer chamber. The plate was incubated with shaking at 37° C. for 6 h. The concentration of 2 in the plasma and buffer compartments was determined as described in Quantitation of 2 in Mouse Plasma and Brain. The free fraction was calculated as [buffer]/[plasma].
# [2] = system: DDPAC I17T MAPT mini-gene (exon 10 splicing); test: 4R/3R MAPT mRNA by RT-qPCR, HeLa cells transfected with DDPAC I17T mini-gene; format: cell-based; conditions: ASO 0.5 μM
# Description: (§1) RNA Isolation and Real-Time Quantitative PCR (RT-qPCR). HeLa cells were treated as described in the Luciferase Reporter assay to Study Exon 10 Alternative Splicing. LAN5 cells were seeded in 12-well plates at 0.2×10^6 cells per well, treated with compound or ASO, and incubated for 48 h. Compound stocks prepared in DMSO and ASO stocks prepared in water were diluted in growth medium and added to cells. Total RNA was extracted from cells and analyzed via RT-qPCR to determine levels of 3R and 4R tau mRNA. In brief, the cells were washed with 1×DPBS and then lysed in the well using 300 μL of Lysis Buffer provided in a Quick-RNA MiniPrep kit (Zymo Research), which was used to extract total RNA per the manufacturer's protocol including the on-column DNase I digestion. The concentration of total RNA was measured by NanoDrop 2000 (Thermo Fisher Scientific). Only samples with OD260/OD280>1.8 were carried forward for analysis. Reverse transcription (RT) was carried out on 200 ng of total RNA using a qScript cDNA synthesis kit (QuantaBio) in a total volume of 10 μL according to the manufacturer's protocol. An Applied Biosystems QS5 384-well PCR system was used to complete qPCR reactions with Power SYBR Green Master Mix (Life Technologies), 600 nM each primer (Table S3), 20 ng of cDNA (1 μL of the RT reaction), in a total volume of 33 μL. Technical triplicates (10 μL each) were aliquoted into 384-well qPCR plates (Applied biosystems, 4483285). Subsequent qPCR analysis was performed using an Applied Biosystems QS5 384-well PCR system (software v.1.3.0). 4R/3R ratio were analyzed using ΔΔCt method using Equation 2: […]
# (§2) where ΔCt 4R or ΔCt 3R is the difference between the Ct values for the 4R or 3R MAPT mRNA and a housekeeping gene (18S rRNA) in total RNA from cells.
# [3] = system: MAPT exon 10 splicing in LAN5 cells; test: 4R/3R endogenous MAPT mRNA by RT-qPCR in LAN5 neuroblastoma cells; format: cell-based; conditions: for PSI10 in all cell lines: ASO, all cell lines of FIGS. 12A-12C (LAN5, HeLa mini-genes, htau primary neurons)
# Description: as §1, §2
# [4] = system: WT I17T MAPT mini-gene (exon 10 splicing); test: 4R/3R MAPT mRNA by RT-qPCR, HeLa cells transfected with WT I17T mini-gene; format: cell-based; conditions: ASO 0.5 μM
# Description: as §1, §2
# [5] = system: MAPT exon 10 splicing in primary neurons from htau mice; test: 4R/3R MAPT mRNA by RT-qPCR in primary neurons from htau mice; format: cell-based, human MAPT in htau transgenic mouse neurons; conditions: 48 h
# Description: as §1
# Isolation and Treatment of Primary Neurons from Humanized tau (hTau) Transgenic Mice. All animal studies were completed as approved by the Scripps Florida Institutional Animal Care and Use Committee. […]
# LAN5 transcriptome = test: RNA-seq transcriptome-wide selectivity in LAN5 cells; format: cell-based, human
# Description: RNA-Seq. LAN5 cells in 12-well plate (~60% confluency) were treated with 2 (1.5 μM), 0.1% (v/v) DMSO (vehicle), 4R-to-3R tau ASO (0.5 μM), or scrambled ASO (0.5 μM) for 48 h. Total RNA was extracted using an RNeasy Mini Kit (Qiagen) per the manufacturer's protocol. Next, rRNA was depleted using NEBNext rRNA depletion modules (E6310L, New England Biosciences) and prepared with NEBNext Ultra II Dir RNA Lib Prep Kit (E7760S, New England Biosciences) according to the manufacturer's protocol. The prepared libraries were processed with NextSeq 500/550 High Output Kit v2.5 (Illumina, 20024907) per the manufacturer's protocol and then sequenced on a NextSeq 500. After sequencing, the BCL files were converted to FASTQ files using basemount/0.12.8.1516 and bcl2fastq/2.17.1.14.^33 The sequencing depth was over 82 million for each sample.
# FastQC^34 and RSeQC^35 were used to determine the quality of reads and any overrepresentation of sequences. HISAT2^36 was used to map the reads to the reference human genome (hg19), and the output SAM files were converted to BAM files and sorted by index. Kallisto^37 and NCBI reference sequences (RefSeq)^38 were used for gene quantification to calculate transcripts per million (TPM). Differentially expressed genes were detected with Sleuth^39 and determined by a multiple test corrected p-value<0.05. Splicing event PSI values were quantitated using MISO.^40
Compound,fraction unbound at 6 h [1],effect on 4R/3R ratio [2],PSI10 in all cell lines [3],effect on 4R/3R ratio [4],"reduction of 4R/3R MAPT ratio ([3]; ASO 0.5 μM, LAN5, 48 h)",4R/3R ratio and PSI10 [5],expression of MAPT gene (LAN5 transcriptome; 2 at 1.5 μM or ASO 0.5 μM),alternative splicing of MAPT exons (exon 10) (LAN5 transcriptome; 2 at 1.5 μM or tau ASO 0.5 μM),"genes unchanged, percent (LAN5 transcriptome; tau ASO 0.5 μM, 48 h) [%]"
"NC(=O)N1c2ccccc2C=Cc2ccccc21 [Carbamazepine, reference compound]",0.377 ± 0.042,–,–,–,–,–,–,–,–
"scrambled ASO: scrambled ASO 5′-CTGTCTGACGTTCTTTGT-3′ (SEQ ID NO: 2), negative control (chemistry not given here) [reference compound]",–,not scrambled ASO altered the 4R/3R ratio,not scrambled ASO was also downregulated,not scrambled ASO altered the 4R/3R ratio,–,–,–,–,–
"tau ASO: Vivo-Morpholino antisense oligonucleotide targeting the MAPT exon-10-intron junction hairpin, 5′-TGAAGGTACTCACACTGCCGC-3′ (SEQ ID NO: 1) (all phosphorodiamidate morpholino (PMO); Vivo-Morpholino: morpholino with attached delivery moiety, further chemistry not fully specified) [reference compound]",–,altered the 4R/3R ratio,also downregulated in all cell lines,altered the 4R/3R ratio,~ 82%,dose dependent reduction,Neither 2 nor the ASO altered the expression of MAPT gene,only one significantly reduced,99.97
